Results: ChEMBL document CHEMBL1201862, “PubChem BioAssay data set” (2004)
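Assay format: 96-well plates, 48-hour exposure. At the GI50, growth is halved.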 The source made the active and inactive calls. Cut-off read from the data, not from the text of the source: active = GI50 up to about 1.1 µM and inactive = higher.

Assays:
Experiment in all cases: growth of human tumour cells (NCI), 48 h
TK-10 = test system: TK-10
SR = test system: SR
NCI-H460 = test system: NCI-H460
A549 = test system: A549
HL-60 = test system: HL-60
CAKI-1 = test system: CAKI-1
PC-3 = test system: PC-3
SNB-75 = test system: SNB-75
DU-145 = test system: DU-145
SNB-19 = test system: SNB-19
OVCAR-3 = test system: OVCAR-3
CCRF-CEM = test system: CCRF-CEM
OVCAR-8 = test system: OVCAR-8
RXF 393 = test system: RXF 393
Malme-3M = test system: Malme-3M
HOP-92 = test system: HOP-92
Hs-578T = test system: Hs-578T
HCT-15 = test system: HCT-15
SK-MEL-2 = test system: SK-MEL-2

Row | Compound | GI50 (TK-10) | GI50 (SR) | GI50 (NCI-H460) | GI50 (A549) | GI50 (HL-60) | GI50 (CAKI-1) | GI50 (PC-3) | GI50 (SNB-75) | GI50 (DU-145) | GI50 (SNB-19) | GI50 (OVCAR-3) | GI50 (CCRF-CEM) | GI50 (OVCAR-8) | GI50 (RXF 393) | GI50 (Malme-3M) | GI50 (HOP-92) | GI50 (Hs-578T) | GI50 (HCT-15) | GI50 (SK-MEL-2)
1 | CC1(C)CC2(C)CC1CC2NC(=O)CCN1CCOCC1 (stereo not given) | > 100 µM (inactive) | > 100 µM (inactive) | > 100 µM (inactive) | > 100 µM (inactive) | > 100 µM (inactive) | > 100 µM (inactive) | > 100 µM (inactive) | > 100 µM (inactive) | > 100 µM (inactive) | > 100 µM (inactive) | > 100 µM (inactive) | > 100 µM (inactive) | > 100 µM (inactive) | > 100 µM (inactive) | > 100 µM (inactive) | > 100 µM (inactive) | > 100 µM (inactive) |  | 
2 | COC(CC1(CCNc2ccccc2)C(=O)N(COCC[Si](C)(C)C)c2ccccc21)OC (stereo not given) | 14.8 µM (inactive) | > 32.8 µM (inactive) | 15 µM (inactive) | 15.5 µM (inactive) | 4.35 µM (inactive) | 26.4 µM (inactive) | 11.8 µM (inactive) | 4.46 µM (inactive) | 23.6 µM (inactive) | 15.5 µM (inactive) | 15.6 µM (inactive) | 15.8 µM (inactive) | 18.4 µM (inactive) | 12.5 µM (inactive) |  | 13.8 µM (inactive) | 18 µM (inactive) | 16 µM | 15.3 µM (inactive)
3 | CC1=N[C@@](C)(C2CC3C=CC2C3=O)COC1=O (stereo not given in full) | > 100 µM (inactive) | > 100 µM (inactive) | > 100 µM (inactive) | > 100 µM (inactive) | > 100 µM (inactive) | > 100 µM (inactive) | > 100 µM (inactive) | > 100 µM (inactive) | > 100 µM (inactive) | > 100 µM (inactive) | > 100 µM (inactive) | > 100 µM (inactive) | > 100 µM (inactive) | > 100 µM (inactive) | > 100 µM (inactive) | > 100 µM (inactive) | > 100 µM (inactive) |  | 
4 | C=C1CC(C)(COc2cc(=O)oc3ccccc23)OC1=O (stereo not given) | 1.77 µM (inactive) | 2.88 µM (inactive) | 11.1 µM (inactive) | 14 µM (inactive) | 1.17 µM (inactive) | 2.22 µM (inactive) | 4.11 µM (inactive) | 8.07 µM (inactive) | 6.97 µM (inactive) | 15.8 µM (inactive) | 3.96 µM (inactive) | 1.86 µM (inactive) | 5.21 µM (inactive) |  | 2.04 µM (inactive) | 1.2 µM (inactive) | 7.74 µM (inactive) | 3.43 µM | 2.51 µM (inactive)
5 | O=C(/C=C/c1cc(O)c(O)cc1O)OCCc1ccccc1 | 6.11 µM (inactive) | 5.53 µM (inactive) | 34.5 µM (inactive) | > 67.8 µM (inactive) | 1.3 µM (inactive) | 24.5 µM (inactive) | 17.3 µM (inactive) | 56 µM (inactive) | > 52.6 µM (inactive) | 61.7 µM (inactive) | 10.3 µM (inactive) | 2.07 µM (inactive) | 9.57 µM (inactive) |  | 13.6 µM (inactive) | 7.6 µM (inactive) | 39.5 µM (inactive) | 22.2 µM | 20.8 µM (inactive)
6 | Oc1ccc([I+]c2ccccc2)cc1O | > 100 µM (inactive) | 19.1 µM (inactive) | 23.3 µM (inactive) | 24.9 µM (inactive) | 16 µM (inactive) | > 100 µM (inactive) | 22.3 µM (inactive) | 95.1 µM (inactive) | 57.8 µM (inactive) | 26.2 µM (inactive) | 28.1 µM (inactive) | 9.46 µM (inactive) | 53.3 µM (inactive) | 52.2 µM (inactive) | 28.8 µM (inactive) | 0.0583 µM (active) | 48.6 µM (inactive) | 27.7 µM | 
7 | Cc1ccc(-[n+]2cc([O-])on2)cc1 | > 100 µM (inactive) | > 100 µM (inactive) | > 100 µM (inactive) | > 100 µM (inactive) | > 100 µM (inactive) | > 100 µM (inactive) | > 100 µM (inactive) |  | > 100 µM (inactive) | > 100 µM (inactive) | > 100 µM (inactive) | > 100 µM (inactive) | > 100 µM (inactive) | > 100 µM (inactive) | > 100 µM (inactive) | 64 µM (inactive) | > 100 µM (inactive) | > 100 µM | > 100 µM (inactive)
8 | Clc1cc(OCc2nn3c(Cc4ccccc4)nnc3s2)ccc1OCc1nn2c(Cc3ccccc3)nnc2s1 | 29.4 µM (inactive) | 35 µM (inactive) | 65.8 µM (inactive) | 32.2 µM (inactive) | 50.2 µM (inactive) | 21.1 µM (inactive) | 48.4 µM (inactive) | 15.6 µM (inactive) | 29.6 µM (inactive) | 24.6 µM (inactive) | 29.9 µM (inactive) |  | 20.7 µM (inactive) | 27.7 µM (inactive) | 37.5 µM (inactive) | 17.3 µM (inactive) | 48.9 µM (inactive) | 47.8 µM | > 100 µM (inactive)
9 | O=C1Nc2ccccc2/C1=C1\C(=O)Nc2ccccc21 [ISOINDIGO] | 31.6 µM (inactive) | 2.82 µM (inactive) | 21.6 µM (inactive) | 27.4 µM (inactive) |  | 19.7 µM (inactive) | 9.75 µM (inactive) | 14.1 µM (inactive) | 12.9 µM (inactive) | 22.5 µM (inactive) | 19.3 µM (inactive) | 2.9 µM (inactive) | 18.8 µM (inactive) | 3.56 µM (inactive) | 13.2 µM (inactive) | 20.6 µM (inactive) | 49.2 µM (inactive) | 3.84 µM | 18.5 µM (inactive)
10 | Cc1nnc2n1N=C(c1ccccc1)/C(=C/c1ccc(-c3ccc(Cl)cc3)o1)S2 | 13.4 µM (inactive) | 5.77 µM (inactive) | 15.1 µM (inactive) | 18 µM (inactive) | 4.36 µM (inactive) | 15.1 µM (inactive) | 11.9 µM (inactive) |  | 14.3 µM (inactive) | 16.6 µM (inactive) | 10.5 µM (inactive) | 2.71 µM (inactive) |  | 10.8 µM (inactive) | 17.3 µM (inactive) | 17.5 µM (inactive) | 54.3 µM (inactive) | 8.53 µM | 13.2 µM (inactive)
11 | Cc1cc(C)n(CN(CCCCO)Cn2nc(C)cc2C)n1 | 73.8 µM (inactive) | 4.82 µM (inactive) | 52.7 µM (inactive) | 49.2 µM (inactive) | 23.3 µM (inactive) | 34.4 µM (inactive) | 20.2 µM (inactive) |  | 24.8 µM (inactive) | 57.1 µM (inactive) | 27.9 µM (inactive) | 0.178 µM (active) | 19.2 µM (inactive) | 18.8 µM (inactive) | 22.9 µM (inactive) | 22 µM (inactive) | > 100 µM (inactive) | 17.5 µM | 22.2 µM (inactive)
12 | COc1ccc(OC)c(NC(=O)c2c(Cl)c(Cl)c(Cl)c(Cl)c2-c2nc3ccccc3[nH]2)c1 |  | 52.6 µM (inactive) | > 100 µM (inactive) | > 100 µM (inactive) | 53.7 µM (inactive) | > 100 µM (inactive) | > 100 µM (inactive) | > 100 µM (inactive) | > 100 µM (inactive) | > 100 µM (inactive) | > 100 µM (inactive) | 49.2 µM (inactive) | 56.9 µM (inactive) | > 100 µM (inactive) | > 100 µM (inactive) | > 100 µM (inactive) | > 100 µM (inactive) | > 100 µM | 
13 | Nc1ncnc2c1ncn2C1OC(CO)C(O)C(O)C1O (stereo not given) | > 100 µM (inactive) | > 100 µM (inactive) | > 100 µM (inactive) | > 100 µM (inactive) | > 100 µM (inactive) | > 100 µM (inactive) | > 100 µM (inactive) | > 100 µM (inactive) | > 100 µM (inactive) | > 100 µM (inactive) | > 100 µM (inactive) | > 100 µM (inactive) | > 100 µM (inactive) |  | > 100 µM (inactive) | > 100 µM (inactive) | > 100 µM (inactive) | > 100 µM | > 100 µM (inactive)
14 | Nc1ccc(S2(c3ccc(N)cc3)C=C(c3ccccc3)C(c3ccccc3)=C2)cc1 | > 27.9 µM (inactive) | > 45.5 µM (inactive) | > 22.4 µM (inactive) | > 29.4 µM (inactive) | > 100 µM (inactive) |  | > 25.2 µM (inactive) | > 100 µM (inactive) | > 38.4 µM (inactive) | > 45 µM (inactive) | > 100 µM (inactive) | > 100 µM (inactive) | > 26.4 µM (inactive) | > 26.9 µM (inactive) | > 100 µM (inactive) | 18.1 µM (inactive) | > 100 µM (inactive) | > 54.2 µM | > 26.6 µM (inactive)
15 | O=C(C=P(c1ccccc1)(c1ccccc1)c1ccccc1)c1ccc(-c2ccc(F)cc2F)cc1 | 2.2 µM (inactive) | 3.44 µM (inactive) | 1.86 µM (inactive) | 2.73 µM (inactive) | 2.43 µM (inactive) | 2.12 µM (inactive) | 3.38 µM (inactive) |  | 3.1 µM (inactive) | 4.73 µM (inactive) | 1.95 µM (inactive) | 2.61 µM (inactive) |  | 2.64 µM (inactive) | 2.72 µM (inactive) | 2.19 µM (inactive) | 3.97 µM (inactive) | 2.29 µM | 
16 | CN(C)Cc1ccc(-c2cc3onc(-c4ccccc4)c3c(=O)n2C)cc1 | 24.1 µM (inactive) | 11.7 µM (inactive) | 17.5 µM (inactive) | 16.4 µM (inactive) | 0.711 µM (active) | 85.3 µM (inactive) | 39.8 µM (inactive) |  | 28.8 µM (inactive) | 57.8 µM (inactive) | 37.4 µM (inactive) |  | 47.5 µM (inactive) |  | 29 µM (inactive) | 7.87 µM (inactive) | 19.6 µM (inactive) | 20.5 µM | 27.5 µM (inactive)
